Data taken from ChEMBL document CHEMBL3232825 (J Med Chem, 2014).
≈ marks a conversion by molar mass, not a printed value.

Columns and labels:
[1] = molecular target: T1, Heat shock protein HSP 90-beta (Homo sapiens, UniProt P08238)
Endoplasmin = Endoplasmin (Homo sapiens, UniProt P14625)
[2] = molecular target: T2, Heat shock protein 75 kDa, mitochondrial (Homo sapiens, UniProt Q12931)
T2 sequence (Q12931 whole entry): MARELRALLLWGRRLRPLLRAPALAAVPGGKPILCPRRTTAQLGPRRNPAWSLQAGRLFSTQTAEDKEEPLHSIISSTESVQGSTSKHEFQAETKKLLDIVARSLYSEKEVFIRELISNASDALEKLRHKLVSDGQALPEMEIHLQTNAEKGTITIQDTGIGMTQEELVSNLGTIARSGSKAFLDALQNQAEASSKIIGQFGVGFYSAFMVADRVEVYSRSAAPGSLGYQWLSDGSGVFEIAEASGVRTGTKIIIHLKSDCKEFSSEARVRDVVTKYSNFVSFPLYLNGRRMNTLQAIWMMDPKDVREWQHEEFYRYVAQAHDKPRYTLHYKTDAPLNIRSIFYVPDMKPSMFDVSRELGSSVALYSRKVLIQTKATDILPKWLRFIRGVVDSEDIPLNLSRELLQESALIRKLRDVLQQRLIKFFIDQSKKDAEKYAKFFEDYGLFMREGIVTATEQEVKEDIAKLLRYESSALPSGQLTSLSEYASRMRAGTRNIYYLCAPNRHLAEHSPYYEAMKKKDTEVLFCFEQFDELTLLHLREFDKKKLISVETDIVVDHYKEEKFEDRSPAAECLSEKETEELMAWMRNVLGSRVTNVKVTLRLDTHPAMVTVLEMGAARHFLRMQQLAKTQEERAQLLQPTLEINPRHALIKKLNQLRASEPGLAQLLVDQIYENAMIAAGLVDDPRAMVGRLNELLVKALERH

[3] = molecular target: T1, Heat shock protein HSP 90-beta; remark: listed apart in the source
[4] = Aqueous solubility of the compound at pH 7.4; assay type: physicochemical
in vivo [5] = conditions: Sprague-Dawley, rat, plasma, iv, 1 mg/kg
in vivo [6] = conditions: Sprague-Dawley, rat, plasma, sc, 10 mg/kg
in vivo [7] = conditions: Sprague-Dawley, rat, iv, 1 mg/kg
in vivo [8] = conditions: Sprague-Dawley, rat, iv, 1 mg/kg; remark: listed apart in the source
in vivo [9] = conditions: Sprague-Dawley, rat, iv, 1 mg/kg; remark: listed apart in the source
in vivo [10] = conditions: Sprague-Dawley, rat, sc, 10 mg/kg
in vivo [11] = conditions: Sprague-Dawley, rat, brain and plasma, sc, 10 mg/kg

T1 sequence (P08238 whole entry): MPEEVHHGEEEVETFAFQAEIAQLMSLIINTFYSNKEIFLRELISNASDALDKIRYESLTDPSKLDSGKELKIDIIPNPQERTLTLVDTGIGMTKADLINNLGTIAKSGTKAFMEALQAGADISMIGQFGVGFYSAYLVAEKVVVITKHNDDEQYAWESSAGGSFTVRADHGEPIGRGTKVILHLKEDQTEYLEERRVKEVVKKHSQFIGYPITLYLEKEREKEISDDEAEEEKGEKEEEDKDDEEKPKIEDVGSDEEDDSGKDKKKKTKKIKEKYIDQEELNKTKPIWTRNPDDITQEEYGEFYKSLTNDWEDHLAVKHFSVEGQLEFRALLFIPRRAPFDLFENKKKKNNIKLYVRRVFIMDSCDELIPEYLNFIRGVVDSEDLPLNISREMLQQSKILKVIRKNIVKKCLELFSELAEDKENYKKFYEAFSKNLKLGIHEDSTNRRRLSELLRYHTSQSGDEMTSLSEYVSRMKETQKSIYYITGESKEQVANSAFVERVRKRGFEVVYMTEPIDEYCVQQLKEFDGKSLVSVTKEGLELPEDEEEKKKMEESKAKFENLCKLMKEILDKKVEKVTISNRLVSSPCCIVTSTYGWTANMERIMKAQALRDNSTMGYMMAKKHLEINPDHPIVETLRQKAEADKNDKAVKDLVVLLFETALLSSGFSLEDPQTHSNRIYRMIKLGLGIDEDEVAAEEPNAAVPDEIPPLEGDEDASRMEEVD
Sequence of Endoplasmin (P14625 whole entry): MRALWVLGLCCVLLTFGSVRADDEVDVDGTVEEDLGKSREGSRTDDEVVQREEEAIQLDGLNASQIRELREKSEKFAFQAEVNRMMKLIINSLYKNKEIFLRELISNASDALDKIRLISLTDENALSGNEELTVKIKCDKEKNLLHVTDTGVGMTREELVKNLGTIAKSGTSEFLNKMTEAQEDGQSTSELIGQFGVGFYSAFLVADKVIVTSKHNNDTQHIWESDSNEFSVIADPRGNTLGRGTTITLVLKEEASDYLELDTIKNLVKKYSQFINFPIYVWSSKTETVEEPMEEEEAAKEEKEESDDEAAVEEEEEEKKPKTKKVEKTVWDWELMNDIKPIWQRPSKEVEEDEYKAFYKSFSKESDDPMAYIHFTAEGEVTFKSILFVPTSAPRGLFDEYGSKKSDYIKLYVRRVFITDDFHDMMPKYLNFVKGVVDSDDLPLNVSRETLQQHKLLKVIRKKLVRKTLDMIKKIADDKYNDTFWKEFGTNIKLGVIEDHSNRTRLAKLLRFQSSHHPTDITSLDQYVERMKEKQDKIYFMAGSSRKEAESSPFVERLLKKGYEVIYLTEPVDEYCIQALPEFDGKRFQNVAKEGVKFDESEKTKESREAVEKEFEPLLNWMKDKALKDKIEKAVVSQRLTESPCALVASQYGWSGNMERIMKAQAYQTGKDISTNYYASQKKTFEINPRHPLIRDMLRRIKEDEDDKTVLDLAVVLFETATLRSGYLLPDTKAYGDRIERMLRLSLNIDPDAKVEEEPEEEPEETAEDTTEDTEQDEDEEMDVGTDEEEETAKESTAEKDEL

SMILES | Ki [1] [µM] | Ki (Endoplasmin) [µM] | Ki [2] [µM] | IC50 [3] [µM] | also measured
CN1CCc2c3c(n(-c4ccc5c(c4)CNC5=O)c2C1)CC(C)(C)CC3=O | > 10 | > 10 | > 10 | > 10 | –
CN1CCc2c3c(n(-c4ccc(C(N)=O)c(N[C@H]5CCOC5)c4)c2C1)CC(C)(C)CC3=O | – | – | – | – | solubility [4]: > 200 µM
Cc1cn(-c2cc3c(c(CC(C)C)c2)C(=O)NCC3)c2c1C(=O)CC(C)(C)C2 | – | > 10 | > 10 | – | AUC (in vivo [5]): 640 ng·h/mL; AUC (in vivo [6]): 3580 ng·h/mL; clearance (in vivo [7]): 25.7 mL/min/kg; Vd (in vivo [8]): 4.08 L/kg; half-life (in vivo [9]): 2.2 h; half-life (in vivo [10]): 11.6 h; Kp at 2 h (in vivo [11]): 0.5
Cc1cn(-c2cc3c(c(C4CCCCC4)c2)C(=O)NCC3)c2c1C(=O)CC(C)(C)C2 | 0.005 | > 10 | > 10 | 0.036 | –
CCCCc1cc(-n2cc(C)c3c2CC(C)(C)CC3=O)cc2c1C(=O)NCC2 | 0.056 | > 10 | > 10 | 1 | –
Cc1cn(-c2cc3c(c(C(C)(C)C)c2)C(=O)NCC3)c2c1C(=O)CC(C)(C)C2 | 0.14 | > 10 | > 10 | 1.7 | –
Cc1cn(-c2cc3c(c(-c4ccc(F)cc4)c2)C(=O)NCC3)c2c1C(=O)CC(C)(C)C2 | 0.01 | > 10 | > 10 | 0.08 | –
Cc1cn(-c2cc3c(c(C4CCC4)c2)C(=O)NCC3)c2c1C(=O)CC(C)(C)C2 | 0.039 | > 10 | > 10 | 0.195 | –
CC1(C)CC(=O)c2c3c(n(-c4ccc(C(N)=O)c(N[C@H]5CCOC5)c4)c2C1)CCCC3 | 0.04 | – | – | 0.53 | solubility [4]: 27 µM (≈ 11.4 µg/mL)
COc1ccc(-c2cc(-n3cc(C)c4c3CC(C)(C)CC4=O)cc3c2C(=O)NCC3)cc1 | 0.04 | > 10 | > 10 | 0.28 | –
Cc1cn(-c2cc3c(c(-c4cccc(F)c4)c2)C(=O)NCC3)c2c1C(=O)CC(C)(C)C2 | 0.02 | > 10 | > 10 | 0.081 | –
CC1(C)CC(=O)c2c(n(-c3ccc(C(N)=O)cc3)c3cccnc23)C1 | > 10 | > 10 | > 10 | – | –

The next lines start with results.

Ki [1] [µM] | Ki (Endoplasmin) [µM] | Ki [2] [µM] | IC50 [3] [µM] | SMILES | also measured
0.015 | > 10 | > 10 | 0.23 | Cc1cn(-c2cc3c(c(-c4ccccc4)c2)C(=O)NCC3)c2c1C(=O)CC(C)(C)C2 | –
0.12 | > 10 | > 10 | 0.48 | Cc1cn(-c2cc3c(c(Cc4ccccc4)c2)C(=O)NCC3)c2c1C(=O)CC(C)(C)C2 | –
> 10 | > 10 | > 10 | – | CC1(C)CC(=O)c2c(n(-c3ccc(C(N)=O)cc3)c3cnccc23)C1 | –
0.003 | 2.4 | > 10 | 0.019 | Cc1cn(-c2cc3c(c(C4CCOCC4)c2)C(=O)NCC3)c2c1C(=O)CC(C)(C)C2 | –
> 10 | > 10 | > 10 | > 10 | CN1CCc2c3c(n(-c4ccc5c(c4)CCCNC5=O)c2C1)CC(C)(C)CC3=O | –
